Laboratory results published in ChEMBL document CHEMBL6182930, “Discovery of TBK1Molecular Glue Degraders as a Potential Strategy for the Treatment of Autosomal Dominant Polycystic Kidney Disease (ADPKD)” (J Med Chem, 2025).
Calls of active or inactive are those of the source. The calls are words filed in the database; no cut-off is given here.

Columns and labels:
[1] = Half-life in rat at 2 mg/kg, iv measured after 24 hrs by LC-MS/MS analysis; type: ADME, organism-based; settings: in vivo
[2] = AUC (0 to infinity) in rat at 2 mg/kg, iv measured after 24 hrs by LC-MS/MS analysis; type: ADME, organism-based; settings: in vivo
[3] = Clearance in rat at 2 mg/kg, iv measured after 24 hrs by LC-MS/MS analysis; type: ADME, organism-based; settings: in vivo
[4] = Volume of distribution at steady state in rat at 2 mg/kg, iv measured after 24 hrs by LC-MS/MS analysis; type: ADME, organism-based; settings: in vivo, read-out: Vdss
[5] = Half-life in rat at 10 mg/kg, po measured after 24 hrs by LC-MS/MS analysis; type: ADME, organism-based; settings: in vivo
[6] = Cmax in rat at 10 mg/kg, po measured after 24 hrs by LC-MS/MS analysis; type: ADME, organism-based; settings: in vivo
[7] = AUC (0 to infinity) in rat at 10 mg/kg, po measured after 24 hrs by LC-MS/MS analysis; type: ADME, organism-based; settings: in vivo
[8] = Oral bioavailability in rat at 10 mg/kg measured after 24 hrs by LC-MS/MS analysis; type: ADME, organism-based; settings: in vivo
[9] = biological target: T1, E3 ubiquitin-protein ligase RNF126/Serine/threonine-protein kinase TBK1 (Homo sapiens, UniProt Q9UHD2+Q9BV68); assay: Molecular glue activity at RNF126/TBK1 in HEK293T cells assessed as induction of TBK1 degradation at 1 uM incubated for 16 hrs by Western blot analysis; type: cell-based
Target sequence in this assay (Q9BV68 2-311 partner limits assumed, one chain of several): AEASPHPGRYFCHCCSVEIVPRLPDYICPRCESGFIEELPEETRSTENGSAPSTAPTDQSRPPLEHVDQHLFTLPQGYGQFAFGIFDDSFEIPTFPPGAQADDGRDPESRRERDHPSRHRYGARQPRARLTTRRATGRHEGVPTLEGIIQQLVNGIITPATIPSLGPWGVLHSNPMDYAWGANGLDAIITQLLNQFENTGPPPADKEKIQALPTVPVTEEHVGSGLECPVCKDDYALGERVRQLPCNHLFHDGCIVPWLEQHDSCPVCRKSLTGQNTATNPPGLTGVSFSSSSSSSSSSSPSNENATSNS

[10] = biological target: T1, E3 ubiquitin-protein ligase RNF126/Serine/threonine-protein kinase TBK1; assay: Molecular glue activity at RNF126/TBK1 in human A549 cells assessed as induction of TBK1 degradation incubated for 16 hrs by Western blot analysis; type: cell-based
[11] = biological target: T1, E3 ubiquitin-protein ligase RNF126/Serine/threonine-protein kinase TBK1; assay: Molecular glue activity at RNF126/TBK1 in HEK293T cells assessed as induction of TBK1 degradation incubated for 16 hrs by Western blot analysis; type: cell-based
[12] = biological target: T1, E3 ubiquitin-protein ligase RNF126/Serine/threonine-protein kinase TBK1; assay: Molecular glue activity at RNF126/TBK1 in human A549 cells assessed as induction of TBK1 degradation by measuring maximal efficacy at 10 to 1000 nM incubated for 16 hrs by Western blot analysis relative to control; type: cell-based; settings: dose 10-1000 nM
Target sequence in this assay (Q9BV68 2-311 partner limits assumed, one chain of several): as above

[13] = biological target: T1, E3 ubiquitin-protein ligase RNF126/Serine/threonine-protein kinase TBK1; assay: Molecular glue activity at RNF126/TBK1 in HEK293T cells assessed as induction of TBK1 degradation at 1 uM measured after 6 hrs by Western blot analysis; type: cell-based
Target sequence in this assay (Q9BV68 2-311 partner limits assumed, one chain of several): as above

[14] = biological target: T1, E3 ubiquitin-protein ligase RNF126/Serine/threonine-protein kinase TBK1; assay: Molecular glue activity at RNF126/TBK1 in human A549 cells assessed as induction of TBK1 degradation at 1 uM measured after 24 hrs by Western blot analysis; type: cell-based
Target sequence in this assay (Q9BV68 2-311 partner limits assumed, one chain of several): as above

[15] = biological target: T1, E3 ubiquitin-protein ligase RNF126/Serine/threonine-protein kinase TBK1; assay: Molecular glue activity at RNF126/TBK1 in HEK293T cells assessed as induction of TBK1 degradation at 1 uM measured after 24 hrs by Western blot analysis; type: cell-based
Target sequence in this assay (Q9BV68 2-311 partner limits assumed, one chain of several): as above

[16] = biological target: T1, E3 ubiquitin-protein ligase RNF126/Serine/threonine-protein kinase TBK1; assay: Molecular glue activity at RNF126/TBK1 in HEK293T cells assessed as induction of TBK1 degradation at 1 uM pretreated with MG132 for 2 hrs followed by compound addition and measured after 16 hrs by Western blot analysis; type: cell-based
Target sequence in this assay (Q9BV68 2-311 partner limits assumed, one chain of several): as above

[17] = biological target: T1, E3 ubiquitin-protein ligase RNF126/Serine/threonine-protein kinase TBK1; assay: Molecular glue activity at RNF126/TBK1 in HEK293T cells assessed as induction of TBK1 degradation at 1 uM pretreated with MLN4924 for 2 hrs followed by compound addition and measured after 16 hrs by Western blot analysis; type: cell-based
[18] = biological target: T1, E3 ubiquitin-protein ligase RNF126/Serine/threonine-protein kinase TBK1; assay: Molecular glue activity at RNF126/TBK1 in human A549 cells assessed as induction of TBK1 degradation at 1 uM pretreated with MLN4924 for 2 hrs followed by compound addition and measured after 16 hrs by Western blot analysis; type: cell-based
[19] = biological target: T2, Serine/threonine-protein kinase TBK1 (Homo sapiens, UniProt Q9UHD2); assay: Inhibition of TBK1-dependent SEAP reporter gene expression in LPS-stimulated human THP1-Blue ISG cells incubated for 24 hrs by QUANTI-Blue reagent based analysis; type: cell-based
T2 sequence (Q9UHD2 whole entry): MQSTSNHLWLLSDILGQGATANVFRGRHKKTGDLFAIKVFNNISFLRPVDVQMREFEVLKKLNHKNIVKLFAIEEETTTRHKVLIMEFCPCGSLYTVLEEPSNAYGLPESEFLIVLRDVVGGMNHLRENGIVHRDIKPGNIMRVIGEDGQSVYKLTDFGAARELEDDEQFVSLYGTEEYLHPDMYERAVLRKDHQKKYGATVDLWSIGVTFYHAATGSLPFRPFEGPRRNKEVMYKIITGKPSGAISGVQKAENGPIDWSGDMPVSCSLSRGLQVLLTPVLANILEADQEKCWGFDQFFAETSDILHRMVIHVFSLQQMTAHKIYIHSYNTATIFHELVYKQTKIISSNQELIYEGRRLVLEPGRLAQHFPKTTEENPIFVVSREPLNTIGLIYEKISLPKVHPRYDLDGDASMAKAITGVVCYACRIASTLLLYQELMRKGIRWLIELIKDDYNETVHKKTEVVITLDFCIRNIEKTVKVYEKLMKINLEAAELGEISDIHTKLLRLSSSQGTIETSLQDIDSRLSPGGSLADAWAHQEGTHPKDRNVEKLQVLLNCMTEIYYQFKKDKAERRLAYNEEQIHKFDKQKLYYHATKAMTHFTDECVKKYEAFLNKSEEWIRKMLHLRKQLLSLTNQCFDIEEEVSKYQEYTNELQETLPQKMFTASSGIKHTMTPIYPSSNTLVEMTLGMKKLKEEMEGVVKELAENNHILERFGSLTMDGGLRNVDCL

MDCK = assay: Inhibition of cystogenesis in forskolin-stimulated MDCK cells assessed as reduction in cyst growth at 100 nM by imaging analysis; type: functional, cell-based; settings: Canis lupus familiaris, time 8.0 day
Kidney = assay: Ex vivo inhibition of renal cystogenesis in wild type C57BL/6 mouse kidney assessed as suppression of 8-Br-cAMP-induced cyst development at 100 nM treated for 6 days by imaging analysis; type: functional, tissue-based; settings: time 6.0 day
Mus musculus [20] = assay: Inhibition of renal cystogenesis in PKD1 knockout ADPKD (Pkd1 flox/flox; Ksp-Cre) C57BL/6 mouse model assessed as reduction in relative kidney size at 5 mg/kg, SC administered from postnatal day 6 and measured on postnatal day 12; type: functional, organism-based; settings: time 7.0 day
Mus musculus [21] = assay: (§1) In vivo molecular glue activity at RNF126/TBK1 in PKD1 knockout ADPKD (Pkd1 flox/flox; Ksp-Cre) C57BL/6 mouse model assessed as decrease in TBK1 level in kidney at 5 mg/kg, SC administered from postnatal day 6 and measured on postnatal day 12 by Western blot analysis; type: functional, organism-based; settings: time 7.0 day
Mus musculus [22] = assay: as §1, with “inhibition of TBK1-mediated activation of inflammatory pathway” for “molecular glue activity at RNF126/TBK1”, “phosphorylated IRF3” for “TBK1”; type: functional, organism-based; settings: time 7.0 day
Mus musculus [23] = assay: Anti-inflammatory activity in PKD1 knockout ADPKD (Pkd1 flox/flox; Ksp-Cre) C57BL/6 mouse model assessed as decrease in IFN-beta level in kidney at 5 mg/kg, SC administered from postnatal day 6 and measured on postnatal day 12 by RT-qPCR analysis; type: functional, organism-based; settings: time 7.0 day

## COc1ccc(C(=O)/C=C/C(=O)N2CCN(CC3CCN(Cc4cccc(Nc5ncc6ccn(CCCNC(=O)C7CCC7)c6n5)c4)CC3)CC2)cc1
[1]
  half-life: 268 min
[2]
  AUC(0-inf): 1.03 µM·h
[3]
  clearance: 44.9 mL/min/kg
[4]
  Vd: 17.3 L/kg
[5]
  half-life: 73.2 min
[6]
  Cmax: 70 nM
[7]
  AUC(0-inf): 0.14 µM·h
[8]
  bioavailability: 2.77%
[9]
  Activity: Active
[10]
  Activity: Dose-dependent-effect
  DC50: 360 nM
[11]
  Activity: Dose-dependent-effect
  DC50: 351 nM
[12]
  Emax: 71.9%
[13]
  Activity: Active; Significant Reduction In Tbk1 Level Observed
[14]
  Activity: Active; Maximal Tbk1 Degradation Observed
[15]
  Activity: Active; Maximal Tbk1 Degradation Observed
[16]
  Activity: inactive
[17]
  Activity: Active; Degradation In Independent Of Crl-Related Pathway
[18]
  Activity: Active; Degradation In Independent Of Crl-Related Pathway
[19]
  IC50: 77.4 nM
MDCK
  inhibition: Time-dependent-effect; Effect Observed Starting On Day 6
Kidney
  inhibition: Active
Mus musculus [20]
  inhibition: Active
Mus musculus [21]
  Activity: Active
Mus musculus [22]
  inhibition: Active
Mus musculus [23]
  Activity: Active
